The source of these data is ChEMBL document CHEMBL4017441, “Mitigating the inhibition of human bile salt export pump by drugs: opportunities provided by physicochemical property modulation, in silico modeling, and structural modification” (Drug Metab Dispos, 2012).

Structures can show the parent of a compound that is named as a salt. *1 amine or outer side, *2 acyl side, *3 side chain or, on linkers, in order; H or OH if unused. Where a SMILES comes first, the peptide text is derived from it. Bridges are numbered along the chain shown (N, C = ends). [ ]: non-standard residue; d: D form. The star is where a group is joined. ξ: configuration not given here. X2 = N=C1NC(O)C[C@H]([C@H](N[*:1])C(=O)[*:2])N1; ΔAla(Z-3-ureido) = NC(=O)N/C=C(\N)C(=O)O; ξβ3hOrn = NCCCC(N)CC(=O)*; Dap = NC[C@H](N)C(=O)O

The assay has as its target Bile salt export pump (Homo sapiens, UniProt O95342). Format: ADME.

For `Cc1cc(Nc2nc(NCc3cc(-c4ccccn4)no3)ncc2Cl)[nH]n1`, the IC50 (as a rule, the point on the concentration scale where inhibition reaches its midpoint) was less than 10 µM.
To `C[N+]1(C)[C@@H]2C[C@@H](OC(=O)C(O)(c3cccs3)c3cccs3)C[C@H]1[C@@H]1O[C@@H]12` [TIOTROPIUM] belongs greater than 1000 µM.
Next, `CC(C)[N+](C)(CCOC(=O)C1c2ccccc2Oc2ccccc21)C(C)C` [PROPANTHELINE BROMIDE]: 291 µM; `O=C(NCCc1ccccc1Cl)c1cc(-n2ncc(=O)[nH]c2=O)ccc1Cl`: 34.4 µM; `CC(=O)Nc1ccc(CC(=O)O)cc1` [ACTARIT]: greater than 1000 µM.
Next, `C[C@]12CC[C@H]3[C@@H](CCC4=CC(=O)CC[C@@]43C)[C@@H]1CC[C@@H]2C(=O)CO` [DESOXYCORTICOSTERONE]: 17.1 µM; `O=C(O)c1ccc(NC(=O)[C@H](Cc2ccc(O)cc2)NC(=O)c2ccccc2)cc1` [BENTIROMIDE]: 235 µM; `CCCc1ncc(-c2ccnc(Nc3ccc(S(=O)(=O)NCCOC)cc3)n2)n1C(C)C`: less than 10 µM.
Consider `CN1CCN2c3ccccc3Cc3ccccc3C2C1` (centres undefined) [MIANSERIN], for which the IC50 was in the range of 46.8 to 47 µM.
To `CN1CCN(CC(=O)N2c3ccccc3C(=O)Nc3cccnc32)CC1` [PIRENZEPINE] belongs greater than 1000 µM; to `CC(CCc1ccccc1)NCC(O)c1ccc(O)c(C(N)=O)c1` (centres undefined) [LABETALOL], 649 µM; to `CC1Cc2ccccc2N1NC(=O)c1ccc(Cl)c(S(N)(=O)=O)c1` (centres undefined) [INDAPAMIDE], 145 µM.
Regarding `CN1CCc2cccc3c2[C@H]1Cc1ccc(O)c(O)c1-3` (stereo in doubt; form 2) [APOMORPHINE], the IC50 came to 391 µM.
Consider `O=C(O)Cc1ccccc1Oc1ccc(Cl)cc1Cl` [FENCLOFENAC], for which the IC50 turned out to be 236 µM.
To `N=C1NC(O)C[C@H]([C@@H]2NC(=O)/C(=C/NC(N)=O)NC(=O)[C@H](CO)NC(=O)[C@H](CO)NC(=O)[C@@H](NC(=O)CC(N)CCCN)CNC2=O)N1` (stereo partly drawn) (ξβ3hOrn-[Dap]SS[ΔAla(Z-3-ureido)][X2]; lactam 1-C) belongs greater than 1000 µM; to `C#Cc1cccc(Nc2ncnc3cc(OCCOC)c(OCCOC)cc23)c1` [ERLOTINIB], less than 10 µM; to `O=C(O)c1cc2c(OCCCO)cccc2n1Cc1ccc(Cl)c(Cl)c1`, less than 14 µM.
Next, `C[N+]1(C)CCCC(OC(=O)C(O)(c2ccccc2)c2ccccc2)C1` (centres undefined) [MEPENZOLATE BROMIDE]: greater than 1000 µM; `Cc1cc(CCC(=O)O)cc(C)c1-c1nc2ccc(-c3nnc(Nc4cccc(Cl)c4)o3)cc2[nH]1`: less than 10 µM; `CCN(CC)CCOC(=O)C(Cc1cccc2ccccc12)CC1CCCO1` (centres undefined) [NAFRONYL]: less than 11 µM.
To `CCc1cc(CC)c2oc(C(=O)O)cc(=O)c2c1O` belongs 112 µM; to `CCOC(=O)[C@H](CCc1ccccc1)N[C@@H](C)C(=O)N1Cc2ccccc2C[C@H]1C(=O)O`, 15.5 µM.
In the case of `CNCC(O)c1ccc(O)cc1` (centres undefined) [OXEDRINE], the IC50 is greater than 1000 µM.
Take `CCCCC(=O)N(Cc1ccc(-c2ccccc2-c2nnn[nH]2)cc1)[C@H](C(=O)O)C(C)C`: the IC50 came to 31.1 µM.
Next, `CC(=O)NS(=O)(=O)c1ccc(NC(=O)c2ccccc2C(=O)O)cc1`: greater than 1000 µM; `CN1C(=O)[C@@H](NC(=O)c2cc3ccccc3[nH]2)N=C(c2ccccc2)c2ccccc21` [DEVAZEPIDE]: less than 10 µM.
Next, `CC1(C)CC(O)CC(C)(C)N1[O]` [TEMPOL]: greater than 1000 µM; `CO/N=C1\CN(c2nc3c(cc2F)c(=O)c(C(=O)O)cn3C2CC2)CC1CN` (centres undefined) [GEMIFLOXACIN]: greater than 1000 µM.
Next, `CCCc1c2c(cc3c(=O)cc(C(=O)O)oc13)CCCC2` [PROCROMIL]: 606 µM; `CC(c1cc2ccccc2s1)N(O)C(N)=O` (centres undefined) [ZILEUTON]: greater than 751 µM; `COc1cc2c(Oc3ccc4[nH]c(C)cc4c3F)ncnc2cc1OCCCN1CCCCC1`: 22.7 µM.
With `C[C@H](CCC(=O)O)[C@H]1CC[C@H]2[C@@H]3[C@@H](O)C[C@@H]4C[C@H](O)CC[C@]4(C)[C@H]3CC[C@]12C` [URSODIOL], the IC50 is less than 10 µM.
Next, `O=c1[nH]c2c(O)ccc(CCNCCS(=O)(=O)CCCOCCc3ccccc3)c2s1` [SIBENADET]: less than 10 µM; `Cc1cccc(Nc2ccncc2S(=O)(=O)NC(=O)NC(C)C)c1` [TORSEMIDE]: 131 µM.
To `Oc1ccc(C2CNCCc3c2cc(O)c(O)c3Cl)cc1` (centres undefined) [FENOLDOPAM] belongs greater than 1000 µM; to `FC(F)(F)c1cccc(C2=CCN(CCc3ccc4ccccc4c3)CC2)c1` [XALIPRODEN], 117 µM; to `O=CN(O)[C@@H](CCCc1ncccn1)CS(=O)(=O)N1CCN(c2ccc(Cl)cn2)CC1`, less than 10 µM.
With `O=CN(O)C(CCc1ccccc1)CS(=O)(=O)N1CCN(c2ccc(Cl)cn2)CC1` (centres undefined), the IC50 is less than 10 µM.
To `CCC1C(=O)OCC1Cc1cncn1C` (centres undefined) belongs greater than 1000 µM.
Next, `CN(C)C(=O)Oc1ccc[n+](C)c1` [PYRIDOSTIGMINE BROMIDE]: greater than 1000 µM.
Next, `CN(C)c1nc(N(C)C)nc(N(C)C)n1` [ALTRETAMINE]: greater than 1000 µM; `COc1ccccc1N1CCN(CC(O)COc2cccc3ccccc23)CC1` (centres undefined) [NAFTOPIDIL]: less than 10 µM; `CN1CCC[C@H]1c1cccnc1` [NICOTINE]: greater than 1000 µM.
For `O=C(c1ccc(-c2ccncc2)cc1)N1CCN(S(=O)(=O)c2cc3cc(Cl)ccc3[nH]2)CC1`, the IC50 is less than 10 µM.
To `NC(=O)NC(=O)Cc1ccccc1` [PHENACEMIDE] belongs greater than 1000 µM.
For `C[C@@H]1C[C@H]2[C@@H]3C[C@H](F)C4=CC(=O)C=C[C@]4(C)[C@@]3(F)[C@@H](O)C[C@]2(C)[C@@]1(O)C(=O)CO` [FLUMETHASONE], the IC50 is 68.5 µM.
To `CC[C@@H](C(N)=O)N1CCCC1=O` belongs greater than 1000 µM; to `C[C@]12CCC(=O)C=C1CC[C@@H]1[C@@H]2C(=O)C[C@@]2(C)[C@H]1CC[C@]2(O)C(=O)CO` [CORTISONE], 108 µM.
To `CC(C)(CO)[C@@H](O)C(=O)NCCC(=O)O` [PANTOTHENIC ACID] belongs greater than 1000 µM; to `O=C(NO)C(CCc1ccccc1)CS(=O)(=O)N1CCN(c2ccc(F)cc2)CC1` (centres undefined), less than 10 µM.
Turning to `C[N+](C)(C)CCOC(N)=O` [CARBAMOYLCHOLINE], the IC50 is greater than 1000 µM.
Regarding `CC12CC3CC(C)(C1)CC(N)(C3)C2` [MEMANTINE], the IC50 is greater than 1000 µM.
Next, `CCOC(=O)[C@H](CCc1ccccc1)N[C@@H](C)C(=O)N1CC2(C[C@H]1C(=O)O)SCCS2` [SPIRAPRIL HYDROCHLORIDE]: 47.1 µM; `O=C1OC(OC(=O)c2cccnc2Nc2cccc(C(F)(F)F)c2)c2ccccc21` (centres undefined) [TALNIFLUMATE]: greater than 1000 µM.
To `CC1(C)O[C@@H]2C[C@H]3[C@@H]4C[C@H](F)C5=CC(=O)CC[C@]5(C)[C@H]4[C@@H](O)C[C@]3(C)[C@]2(C(=O)CO)O1` [FLURANDRENOLIDE] belongs 71.2 µM.
Next, `O=C1CC[C@@]2(O)[C@H]3Cc4ccc(O)c5c4[C@@]2(CCN3CC2CC2)[C@H]1O5` [NALTREXONE]: greater than 1000 µM; `CC(=O)Nc1cc([As](=O)(O)O)ccc1O` [ACETARSONE]: greater than 1000 µM.
In the case of `CCN(CC)CCNC(=O)c1ccc(NC(C)=O)cc1` [ACECAINIDE], the IC50 is greater than 1000 µM.
On to `Cc1ccc(NC(=O)c2cccc3c2oc2ccccc23)cc1NC(=O)c1cccc(OC2CCN(C(C)C)CC2)c1`, for which the IC50 is less than 10 µM.
To `Cn1c(=O)c2c(ncn2CC(O)CO)n(C)c1=O` (centres undefined) [DYPHYLLINE] belongs greater than 1000 µM.
Next, `CC(Cc1ccc2c(c1)OCO2)NCC(O)c1ccc(O)c(O)c1` (centres undefined) [PROTOKYLOL HYDROCHLORIDE]: greater than 982 µM; `O=C(CCCN1CCC2(CC1)C(=O)NCN2c1ccccc1)c1ccc(F)cc1` [SPIPERONE]: less than 10 µM; `CC(=O)c1ccc2c(c1)N(CCCN(C)C)c1ccccc1S2` [ACEPROMAZINE]: 112 µM.
For `CN1CC[C@@]2(C)c3cc(OC(=O)N4CCc5ccccc5C4)ccc3N(C)[C@@H]12` [QUILOSTIGMINE], the IC50 was less than 10 µM.
Next, `CC(C)(C)c1ccc(C(O)CCCN2CCC(C(O)(c3ccccc3)c3ccccc3)CC2)cc1` (centres undefined) [TERFENADINE]: less than 17.5 µM.
Consider `NC(=O)CN1CCCC1=O`, for which the IC50 was greater than 1000 µM.
Next, `O=C(O)c1c(Cl)c(Cl)c(Cl)c(Cl)c1-c1c2cc(I)c(=O)c(I)c-2oc2c(I)c(O)c(I)cc12` [ROSE BENGAL SODIUM]: less than 10 µM; `CCCN1CCCC[C@H]1C(=O)Nc1c(C)cccc1C` [ROPIVACAINE]: 646 µM; `CSc1ccc2c(c1)N(CCC1CCCCN1C)c1ccccc1S2` (centres undefined) [THIORIDAZINE]: 24.3 µM.
On to `CCOC(=O)c1ncn2c1CN(C)C(=O)c1cc(F)ccc1-2` [FLUMAZENIL], for which the IC50 was greater than 733 µM.
Next, `N#Cc1ccccc1OCC(O)CNCCNC(=O)Cc1ccc(O)cc1` (centres undefined) [EPANOLOL]: 244 µM; `CCCC(=O)c1cnc2c(OCC[S+](C)[O-])cccc2c1Nc1ccc(F)cc1C` (centres undefined): less than 10 µM.
To `Nc1ncnc2nc[nH]c12` [ADENINE] belongs greater than 1000 µM.
To `CCOC(=O)C1=C(COCCN)NC(C)=C(C(=O)OC)C1c1ccccc1Cl` (centres undefined) [AMLODIPINE] belongs 16 µM; to `CCCCNc1cc(C(=O)O)cc(S(N)(=O)=O)c1Oc1ccccc1` [BUMETANIDE], 526 µM.
`Cc1n[nH]c(C)c1Cc1sc2c(c1C(=O)N1C[C@H](O)CO1)c(=O)n(C)c(=O)n2C(C)C`: the 50% inhibitory concentration (IC50) turned out to be 703 µM.
To `CC1(C)OC(=O)NC1=O` [DIMETHADIONE] belongs greater than 1000 µM; to `O=C1C(O)=C(O)C(=O)C(O)=C1O` [TETROQUINONE], greater than 1000 µM; to `CNC[C@H](O)Cc1ccc(Cl)c(C(=O)NCC23CC4CC(CC(C4)C2)C3)c1`, 133 µM.
To `CC(=O)Oc1c(C)cc(Nc2ccn(-c3ccccc3)n2)cc1C` belongs less than 10 µM; to `O=C(NCC12CC3CC(CC(C3)C1)C2)c1cc(CN2CCNCC2)ccc1Cl`, 124 µM.
Next, `CC1CC(OC(=O)C(O)c2ccccc2)CC(C)(C)C1` (centres undefined) [CYCLANDELATE]: 15 µM; `CCC1(c2ccccc2)NC(=O)N(C)C1=O` (centres undefined) [MEPHENYTOIN]: greater than 1000 µM.
Turning to `COc1ccccc1Oc1c(NS(=O)(=O)c2ccc(C(C)(C)C)cc2)nc(-c2ncccn2)nc1OCCO` [BOSENTAN], the IC50 is less than 25.3 µM.
